In patent US9783573B2, “IAP antagonists” (BRISTOL-MYERS SQUIBB COMPANY, priority 2012, dated 2017):

Key:
[1] = target: His-BIR2-3 (125-356, C202A/C213G, XIAP) (Homo sapiens (Human), UniProt P98170, C202A/C213G); test: XIAP-BIR2-3 Dimeric SMAC Peptide Homogeneous Time Resolved Fluorescence (HTRF) Assay; type: binding; details: fluorescein labeled dimeric SMAC peptide
Procedure: D. XIAP-BIR2-3 Dimeric SMAC Peptide Homogeneous Time Resolved Fluorescence (HTRF) Assay
(§1) Assays were performed in black, flat-bottom, 384-well plates.

His-BIR3 (241-356, XIAP) = His-BIR3 (241-356, XIAP) (Homo sapiens (Human), UniProt P98170); test: XIAP-BIR3/SMAC Homogeneous Time Resolved Fluorescence (HTRF) Assay; type: binding; details: fluorescein labeled SMAC peptide
Procedure: B. XIAP-BIR3/SMAC Homogeneous Time Resolved Fluorescence (HTRF) Assay
as §1

SMILES | IC50 [1] [nM] | IC50 (His-BIR3 (241-356, XIAP)) [nM]
CN[C@@H](C)C(=O)N[C@H](C(=O)N1Cc2cc(NC(=O)c3ccc(C(=O)N[C@H]4C[C@@H](C(=O)N[C@@H]5CCCc6ccccc65)N(C(=O)[C@@H](NC(=O)[C@H](C)NC)C(C)(C)C)C4)cc3)ccc2C[C@H]1C(=O)N[C@@H](COC)c1ccccc1)C(C)(C)C [Example 13, N^1-((S)-2-((S)-3,3-Dimethyl-2-((S)-2-(methylamino)propanamido)butanoyl)-3-(((R)-2-methoxy-1-phenylethyl)carbamoyl)-1,2,3,4-tetrahydroisoquinolin-7-yl)-N^4-((3S,5S)-1-((S)-3,3-dimethyl-2-((S)-2-(methylamino)propanamido)butanoyl)-5-(((R)-1,2,3,4-tetrahydronaphthalen-1-yl)carbamoyl)pyrrolidin-3-yl)terephthalamide] | 11 | 12
CN[C@@H](C)C(=O)N[C@H](C(=O)N1Cc2cc(NC(=O)c3ccc4c(ccn4C(=O)N[C@H]4C[C@@H](C(=O)N[C@@H]5CCCc6ccccc65)N(C(=O)[C@@H](NC(=O)[C@H](C)NC)C(C)(C)C)C4)c3)ccc2C[C@H]1C(=O)N[C@@H]1CCCc2ccccc21)C(C)(C)C [Example 49, N^5—((S)-2-((S)-3,3-Dimethyl-2-((S)-2-(methylamino)propanamido)butanoyl)-3-(((R)-1,2,3,4-tetrahydronaphthalen-1-yl)carbamoyl)-1,2,3,4-tetrahydroisoquinolin-7-yl)-N^1-((3S,5S)-1-((S)-3,3-dimethyl-2-((S)-2-(methylamino)propanamido)butanoyl)-5-(((R)-1,2,3,4-tetrahydronaphthalen-1-yl)carbamoyl)pyrrolidin-3-yl)-1H-indole-1,5-dicarboxamide] | 22 | 51
CN[C@@H](C)C(=O)N[C@H](C(=O)N1Cc2cc(NC(=O)c3ccc(C(=O)N[C@H]4C[C@@H](C(=O)N[C@@H]5CCCc6ccccc65)N(C(=O)[C@@H](NC(=O)[C@H](C)NC)C(C)(C)C)C4)cc3)ccc2C[C@H]1C(=O)N[C@H](C)c1ccccc1F)C(C)(C)C [Example 11, N^1-((S)-2-((S)-3,3-Dimethyl-2-((S)-2-(methylamino)propanamido)butanoyl)-3-(((R)-1-(2-fluorophenyl)ethyl)carbamoyl)-1,2,3,4-tetrahydroisoquinolin-7-yl)-N^4-((3S,5S)-1-((S)-3,3-dimethyl-2-((S)-2-(methylamino)propanamido)butanoyl)-5-(((R)-1,2,3,4-tetrahydronaphthalen-1-yl)carbamoyl)pyrrolidin-3-yl)terephthalamide] | 12 | 18
CN[C@@H](C)C(=O)N[C@H](C(=O)N1C[C@@H](NC(=O)c2ccc(C(=O)Nc3ccc4c(c3)CN(C(=O)[C@@H](NC(=O)[C@H](C)NC)C(C)(C)SCC(=O)N3CCOCC3)[C@H](C(=O)N[C@@H]3CCCc5ccccc53)C4)cc2)C[C@H]1C(=O)N[C@@H]1CCCc2ccccc21)C(C)(C)C [Example 61, N^1-((3S,5S)-1-((S)-3,3-Dimethyl-2-((S)-2-(methylamino)propanamido)butanoyl)-5-(((R)-1,2,3,4-tetrahydronaphthalen-1-yl)carbamoyl)pyrrolidin-3-yl)-N^4-((S)-2-((R)-3-methyl-2-((S)-2-(methylamino)propanamido)-3-((2-morpholino-2-oxoethyl)thio)butanoyl)-3-(((R)-1,2,3,4-tetrahydronaphthalen-1-yl)carbamoyl)-1,2,3,4-tetrahydroisoquinolin-7-yl)terephthalamide] | 16 | 31
CN[C@@H](C)C(=O)N[C@H](C(=O)N1C[C@@H](NC(=O)c2ccc(C(=O)Nc3ccc4c(c3)CN(C(=O)[C@@H](NC(=O)[C@H](C)NC)C(C)(C)SCC(=O)NCCO)[C@H](C(=O)N[C@@H]3CCCc5ccccc53)C4)cc2)C[C@H]1C(=O)N[C@@H]1CCCc2ccccc21)C(C)(C)C [Example 63, N^1-((3S,5S)-1-((S)-3,3-Dimethyl-2-((S)-2-(methylamino)propanamido)butanoyl)-5-(((R)-1,2,3,4-tetrahydronaphthalen-1-yl)carbamoyl)pyrrolidin-3-yl)-N^4-((S)-2-((R)-3-((2-((2-hydroxyethyl)amino)-2-oxoethyl)thio)-3-methyl-2-((S)-2-(methylamino)propanamido)butanoyl)-3-(((R)-1,2,3,4-tetrahydronaphthalen-1-yl)carbamoyl)-1,2,3,4-tetrahydroisoquinolin-7-yl)terephthalamide] | 5 | 17
CCN[C@@H](C)C(=O)N[C@H](C(=O)N1Cc2cc(OCc3ccc(C(=O)NC4C[C@@H](C(=O)NC5CCCc6ccccc65)N(C(=O)[C@@H](NC(=O)[C@H](C)NC)C(C)(C)C)C4)cc3)ccc2C[C@H]1C(=O)NC1CCCc2ccccc21)C(C)(C)C (stereo partly drawn) [Example 39] | 65 | 89
